Measurements reported in patent publication US7713987B2, “Pyrimidine-2,4-diamines and their uses” (Rigel Pharmaceuticals, Inc., priority 2005, dated 2010).

What was measured:
[1] = Pharmacokinetics of the compounds in sprague-dawley rats (oral and IV bolus, plasma LC/MS/MS); type: in vivo
Protocol: Compounds were administered to rats orally at a dose of 4-5 mg/kg using PEG-400 as a vehicle. Selected compounds were also administered as an IV bolus at a dose of 1 mg/kg. Plasma samples were obtained from either the portal or jugular veins and analyzed by LC/MS/MS for both the parent pyrimidine-2,4-diamine and the prodrug compounds synthesized in the examples above. Bioavailability was calculated using the AUC of pyrimidine-2,4-diamine in jugular vein samples and the AUC of an IV bolus dose of pyrimidine-2,4-diamine. For selected compounds, portal vein samples were evaluated for both prodrug and pyrimidine-2,4-diamine and the information was used to determine the percent absorption of the orally administered dose.

[2] = Metabolic stability of prodrugs in rat hepatic microsomes; type: in vitro ADME; details: in the presence of NADPH, first value of cell, read-out: T1/2 (half-life of prodrug)
Protocol: (§1) Selected compounds were incubated in rat and human hepatic microsomes (with and without NADPH) and analyzed by LC/MS/MS for both the prodrug and pyrimidine-2,4-diamine.
(§2) Studies were conducted in microsomes to determine whether the prodrug moieties could be hydrolyzed by CYP450 enzymes.

[3] = Metabolic stability of prodrugs in human hepatic microsomes; type: in vitro ADME; details: in the presence of NADPH, second value of cell, read-out: T1/2 (half-life of prodrug)
Protocol: as §1, §2

% of prodrug absorbed ([1]; AUC of prodrug in portal vein after oral dose vs AUC in jugular vein after IV dose, dose-corrected)	clearance ([1]; Sprague-Dawley, rat, plasma, IV bolus 1 mg/kg, read-out: Clearance rate of prodrug)	half-life [2]	half-life [3]	Structure (SMILES)
20%	72 mL/min/kg	< 5 min	< 5 min	COc1cc(N(C(=O)OCCN2CCOCC2)c2ncc(F)c(Nc3ccc4c(n3)NC(=O)C(C)(C)O4)n2)cc(OC)c1OC [Example 2, N4-(2,2-Dimethyl-3-oxo-4H-5-pyrido[1,4]oxazin-6-yl)-5-fluoro-N2-[[2-(morpholin-4-yl)ethoxy]carbonyl]-N2-(3,4,5-trimethoxyphenyl)-2,4-pyrimidinediamine]
–	–	< 5 min	< 5 min	COc1cc(N(C(=O)OCC2CCCCN2C)c2ncc(F)c(Nc3ccc4c(n3)NC(=O)C(C)(C)O4)n2)cc(OC)c1OC (centres unmarked) [Example 3]

Structure (SMILES)	% of prodrug absorbed ([1]; AUC of prodrug in portal vein after oral dose vs AUC in jugular vein after IV dose, dose-corrected)	clearance ([1]; Sprague-Dawley, rat, plasma, IV bolus 1 mg/kg, read-out: Clearance rate of prodrug)	half-life [2]	half-life [3]
COc1cc(N(C(=O)N[C@H](C(=O)OC(C)(C)C)C(C)C)c2ncc(F)c(Nc3ccc4c(n3)NC(=O)C(C)(C)O4)n2)cc(OC)c1OC [Example 8, 1S—N2-[[-1-(t-Butoxycarbonyl)-2-methylpropyl]aminocarbonyl]-N4-(2,2-dimethyl-3-oxo-4H-5-pyrido[1,4]oxazin-6-yl)-5-fluoro-N2-(3,4,5-trimethoxyphenyl)-2,4-pyrimidinediamine]	–	–	35 min	10 min
